Measurements reported in patent US6075057A, “Inhibition of carbohydrates metabolism by quinone compounds” (priority 1997, dated 2000).

Key:
[1] = molecular target: T1, α-mannosidase (EC 3.2.1.24) (Canavalia ensiformis, UniProt C0HJB3); assay: Initial screening assay for enzyme inhibition, α-mannosidase; type: biochemical, jack beans; conditions: for remaining activity at 10 µM: α-mannosidase, 10 μM inhibitor, 2% MeOH, read-out: % Enzyme activity relative to control
T1 construct: 66 and 44 kDa subunits cleaved from one precursor
T1 sequence (C0HJB3 1-981): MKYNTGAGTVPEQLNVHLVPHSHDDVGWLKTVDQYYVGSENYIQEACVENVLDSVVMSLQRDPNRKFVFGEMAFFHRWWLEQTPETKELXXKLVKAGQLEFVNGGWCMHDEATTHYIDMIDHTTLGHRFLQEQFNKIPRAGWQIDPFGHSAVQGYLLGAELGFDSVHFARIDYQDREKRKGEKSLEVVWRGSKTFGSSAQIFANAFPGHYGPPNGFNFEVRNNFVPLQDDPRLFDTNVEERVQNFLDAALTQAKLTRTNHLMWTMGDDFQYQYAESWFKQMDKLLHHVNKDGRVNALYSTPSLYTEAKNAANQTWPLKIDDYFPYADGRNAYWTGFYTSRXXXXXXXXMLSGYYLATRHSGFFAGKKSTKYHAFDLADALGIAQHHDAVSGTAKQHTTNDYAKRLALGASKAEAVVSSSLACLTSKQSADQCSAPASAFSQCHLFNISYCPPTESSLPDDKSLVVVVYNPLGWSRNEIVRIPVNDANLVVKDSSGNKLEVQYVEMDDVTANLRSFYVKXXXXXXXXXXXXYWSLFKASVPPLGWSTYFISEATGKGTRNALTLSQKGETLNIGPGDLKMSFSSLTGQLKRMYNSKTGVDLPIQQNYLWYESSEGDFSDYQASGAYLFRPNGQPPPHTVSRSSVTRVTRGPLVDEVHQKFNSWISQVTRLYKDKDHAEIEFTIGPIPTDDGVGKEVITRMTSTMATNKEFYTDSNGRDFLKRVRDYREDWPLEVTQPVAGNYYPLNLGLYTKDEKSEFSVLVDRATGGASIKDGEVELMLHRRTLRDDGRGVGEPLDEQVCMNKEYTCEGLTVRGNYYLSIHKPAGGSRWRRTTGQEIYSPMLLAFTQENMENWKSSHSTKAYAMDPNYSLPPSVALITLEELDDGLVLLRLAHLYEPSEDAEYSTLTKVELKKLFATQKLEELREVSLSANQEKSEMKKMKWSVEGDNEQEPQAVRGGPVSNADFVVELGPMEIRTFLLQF
Description: (§1) Optically pure enantiomers of avarol were synthetically prepared. A survey of potential inhibitory activity by avarol against twelve glycosidases was performed according to general procedures^15 (see experimental section). The enzymes tested and their biological sources are listed in Table 1 along with any pertinent references found for a given enzyme. In order to determine a working range for enzyme and substrate concentrations in which the rate of product formation was linear and steady-state kinetics were applicable, initial rate studies with varying substrate concentrations were performed in the absence of inhibitor. The Michaelis constants (Km 's) and Vmax values for these enzymes were determined from these plots using standard graphical analysis procedures as described in ref. 17 and are summarized in Table 2.
Initial screening assays with the enantiomeric avarols indicated significant activity by these compounds against only two of the twelve enzymes studies. […] This can occur when the two species compete for the same site or nearby sites on the enzyme. The equilibria that describe competitive inhibition are shown below. [drawing 3]
Enzymatic Assays. […] Reactions were monitored at 400 nm (the absorbance of the p-nitrophenol product, ε=3204.5 M^-1 cm^-1) for a given amount of time and the initial rates were calculated and expressed as μmols p-nitrophenol formed per unit enzyme per second. Absportion readings for control reactions were corrected for the small baseline absorbance at time zero. Small discrepancies between time zero absorbance readings in a given inhibition assay and a time zero reading in a control assay were used to correct the overall absorbance change calculated in the inhibition assay. […]
(§2) Typical assay: A 1.5-mL quartz cuvette was charged with 940 μL of PIPES-NaOAc buffer solution (pH 6.56), 20 μL of inhibitor solution, and 20 μL of enzyme solution. […] The reaction was monitored at 400 nm for 1 min and the absorbance change was used to calculate the initial hydrolysis rate. […]

[2] = molecular target: T2, β-galactosidase (EC 3.2.1.23) (Aspergillus niger, UniProt P29853); assay: Initial screening assay for enzyme inhibition, β-galactosidase (Asp. niger); type: biochemical; conditions: 2% MeOH, read-out: % Enzyme activity relative to control
T2 construct: purchased Sigma; host or cells: Aspergillus niger
Description: as §1
(§3) Enzymatic Assays. Piperazine-N,N'-bix-(2-ethanesulfonic acid)(PIPES) buffer, enzymes, and substrates were purchased from Sigma and used as received. Buffer solutions and enzymes (desiccated) were stored at 4° C. p-Nitrophenyl glycoside substrates were stored desiccated at -20° C. Enzyme inhibition assays and initial rate studies were carried out with the appropriate p-nitrophenyl glycoside substrates following the general procedure of Kajimoto et al., J. Am. Chem. Soc. 113:6187 (1991) with the exception that amyloglucosidase (EC 3.2,1.3, Asp. niger) was assayed following the method of Saul et al., Arch. Biochem. Biophys. 221:593 (1983). Assays were performed in a Perkin-Elmer Lambda Array 3840 Spectrophotometer using the built-in drive method (resolution=0.25, average=8) in a quartz cuvette (1 cm pathlength). Background absorption spectra were acquired using millipore filtered water as medium. Steady-state kinetics were maintained by adjusting the amount of enzyme used in each assay so that less than 10% of the substrate was converted to product for the duration of the reaction. Reactions were monitored at 400 nm (the absorbance of the p-nitrophenol product, ε=3204.5 M^-1 cm^-1) for a given amount of time and the initial rates were calculated and expressed as μmols p-nitrophenol formed per unit enzyme per second. Absportion readings for control reactions were corrected for the small baseline absorbance at time zero. Small discrepancies between time zero absorbance readings in a given inhibition assay and a time zero reading in a control assay were used to correct the overall absorbance change calculated in the inhibition assay. […]
as §2

[3] = system: α-galactosidase (EC 3.2.1.22); assay: Initial screening assay for enzyme inhibition, α-galactosidase (E. coli); type: biochemical, Escherichia coli; conditions: 2% MeOH
Description: as §1, §3, §2

[4] = molecular target: T3, α-galactosidase (EC 3.2.1.22) (Coffea arabica, UniProt Q42656); assay: Initial screening assay for enzyme inhibition, α-galactosidase (green coffee beans); type: biochemical; conditions: α-galactosidase (green coffee beans), 2% MeOH, read-out: % Enzyme activity relative to control
T3 construct: purchased Sigma; host or cells: green coffee beans
Description: as §1, §3, §2

T2 sequence (P29853 20-1006): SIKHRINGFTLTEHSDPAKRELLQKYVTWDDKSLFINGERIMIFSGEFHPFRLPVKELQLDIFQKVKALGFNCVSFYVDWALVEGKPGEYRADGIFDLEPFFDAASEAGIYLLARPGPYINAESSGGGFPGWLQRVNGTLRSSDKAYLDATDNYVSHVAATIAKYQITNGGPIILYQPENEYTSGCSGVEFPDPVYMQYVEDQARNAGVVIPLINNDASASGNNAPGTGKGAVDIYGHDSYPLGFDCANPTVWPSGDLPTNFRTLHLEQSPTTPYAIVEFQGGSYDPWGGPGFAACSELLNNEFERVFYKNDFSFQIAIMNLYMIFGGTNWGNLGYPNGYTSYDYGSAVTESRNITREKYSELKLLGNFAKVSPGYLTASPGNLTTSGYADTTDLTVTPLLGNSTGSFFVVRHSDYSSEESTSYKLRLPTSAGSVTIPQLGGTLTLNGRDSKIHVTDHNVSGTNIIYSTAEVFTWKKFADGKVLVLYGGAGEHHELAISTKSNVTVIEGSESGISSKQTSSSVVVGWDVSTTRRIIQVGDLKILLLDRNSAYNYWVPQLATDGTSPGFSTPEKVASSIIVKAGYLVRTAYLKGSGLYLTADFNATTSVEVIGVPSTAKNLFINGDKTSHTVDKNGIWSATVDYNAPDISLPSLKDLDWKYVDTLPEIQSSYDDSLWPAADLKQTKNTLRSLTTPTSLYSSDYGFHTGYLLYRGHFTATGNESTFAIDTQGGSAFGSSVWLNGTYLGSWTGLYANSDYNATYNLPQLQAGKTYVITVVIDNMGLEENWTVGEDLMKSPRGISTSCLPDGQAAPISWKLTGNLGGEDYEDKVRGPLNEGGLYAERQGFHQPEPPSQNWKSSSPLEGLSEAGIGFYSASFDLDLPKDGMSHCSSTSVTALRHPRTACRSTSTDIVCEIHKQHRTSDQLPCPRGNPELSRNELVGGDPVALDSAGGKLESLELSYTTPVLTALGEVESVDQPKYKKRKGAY
T3 sequence (Q42656 16-378): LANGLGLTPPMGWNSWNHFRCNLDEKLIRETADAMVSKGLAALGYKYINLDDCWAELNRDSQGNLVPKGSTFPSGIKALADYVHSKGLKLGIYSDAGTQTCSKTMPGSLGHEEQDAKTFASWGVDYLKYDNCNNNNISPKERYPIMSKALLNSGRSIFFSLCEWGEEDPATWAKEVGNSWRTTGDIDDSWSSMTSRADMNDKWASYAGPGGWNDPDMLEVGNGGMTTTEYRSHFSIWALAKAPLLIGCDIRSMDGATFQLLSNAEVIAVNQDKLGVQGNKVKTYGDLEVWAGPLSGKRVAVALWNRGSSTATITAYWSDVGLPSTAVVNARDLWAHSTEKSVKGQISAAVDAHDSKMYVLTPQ

SMILES	remaining activity at 10 µM [1] [%]	remaining activity at 40 µM ([2]; 40 μM inhibitor) [%]	% Enzyme activity relative to control ([3]; 40 μM inhibitor) [%]	remaining activity at 40 µM ([4]; 40 μM inhibitor) [%]	activity versus naturally-occurring enantiomer, α-mannosidase (in words) ([1]; versus (+)-avarol)	remaining activity at 20 µM ([2]; 20 μM inhibitor) [%]	% Enzyme activity relative to control ([3]; 20 μM inhibitor) [%]	remaining activity at 20 µM ([4]; 20 μM inhibitor) [%]
CC1=CCC[C@H]2[C@](C)(Cc3cc(O)ccc3O)[C@@H](C)CC[C@]12C [(+)-avarol, (+)-Avarol]	90	104	90	82	–	–	–	–
CC1=CCC[C@@H]2[C@@](C)(Cc3cc(O)ccc3O)[C@H](C)CC[C@@]12C [(-)-avarol]	47	–	–	–	significantly more active than the naturally-occurring enantiomer	111	94	83
